# Data from patent US20080113101A1, “ORGANIC-ELECTROLUMINESCENCE-MATERIAL-CONTAINING SOLUTION, METHOD FOR FORMING THIN FILM OF ORGANIC ELECTROLUMINESCENCE MATERIAL, THIN FILM OF ORGANIC ELECTROLUMINESCENCE MATERIAL AND ORGANIC ELECTROLUMINESCENCE DEVICE” (Idemitsu Kosan Co., Ltd., priority 2006, published 2008).
# Experiment: Solubility Evaluation 2: solubility of dopant compounds in toluene
# Format: physicochemical
# Conditions: Table 2
# Procedure: (§1) A hundred mg of each compound was placed in a sample pot and the toluene as the solvent was added until the compound was dissolved. The solubility in the toluene was obtained from an amount of the added toluene.
row,Compound,Solubility (%)
1,CC(C)c1ccc2c(N(c3ccc(-c4ccccc4)cc3)c3ccc4ccccc4c3)c3cc(CC4CCCCC4)ccc3c(N(c3ccc(-c4ccccc4)cc3)c3ccc4ccccc4c3)c2c1 [EM136],0.5%
2,CCC(C)c1ccc(N(c2ccccc2)c2c3ccc(C(C)C)cc3c(N(c3ccccc3)c3ccc(C(C)CC)cc3)c3ccc(CC(C)(C)C)cc23)cc1 (centres unmarked) [EM137],1%
3,Cc1ccc(N(c2ccc(C)cc2)c2c3ccc(C4CCCCC4)cc3c(N(c3ccc(C)cc3)c3ccc(C)cc3)c3ccc(C(C)C)cc23)cc1 [EM138],0.5%
4,Cc1ccc(N(c2ccc(C)cc2)c2c3ccccc3c(N(c3ccc(C)cc3)c3ccc(C)cc3)c3cc(C(C)(C)C)ccc23)cc1 [EM139],0.5%
5,Cc1ccc(N(c2ccc(C(C)(C)C)cc2)c2c3ccccc3c(N(c3ccc(C)cc3)c3ccc(C(C)(C)C)cc3)c3cc(C(C)C)ccc23)cc1 [EM140],0.5%
6,Cc1ccc(N(c2ccc(C(C)C)cc2)c2c3ccccc3c(N(c3ccc(C)cc3)c3ccc(C(C)C)cc3)c3cc(C(C)(C)C)ccc23)cc1 [EM141],0.5%
7,CC(C)c1ccc(N(c2ccccc2)c2c3ccc(C(C)(C)C)cc3c(N(c3ccccc3)c3ccc(C(C)C)cc3)c3ccc(C(C)(C)C)cc23)cc1 [EM142],0.5%
8,Cc1ccc(N(c2ccc(C)cc2)c2c3ccc(C(C)(C)C)cc3c(N(c3ccc(C)cc3)c3ccc(C)cc3)c3ccc(C(C)(C)C)cc23)cc1 [EM143],0.5%
9,Cc1ccc(N(c2ccc(C(C)C)cc2)c2c3ccc(C(C)(C)C)cc3c(N(c3ccc(C)cc3)c3ccc(C(C)C)cc3)c3ccc(C(C)(C)C)cc23)cc1 [EM144],0.5%
10,Cc1ccc(N(c2ccc(C)c(C)c2)c2c3ccc(C(C)(C)C)cc3c(N(c3ccc(C)c(C)c3)c3ccc(C)c(C)c3)c3ccc(C(C)(C)C)cc23)cc1C [EM145],0.5%
11,Cc1cccc(N(c2cccc(C(C)C)c2)c2c3ccc(C(C)(C)C)cc3c(N(c3cccc(C)c3)c3cccc(C(C)C)c3)c3ccc(C(C)(C)C)cc23)c1 [EM146],0.5%
12,Cc1cccc(N(c2ccc(C)c(C)c2)c2c3ccc(C(C)(C)C)cc3c(N(c3cccc(C)c3)c3ccc(C)c(C)c3)c3ccc(C(C)(C)C)cc23)c1 [EM147],1%
13,CC(C)(C)c1ccc2c(N(c3ccc4ccccc4c3)c3ccc4ccccc4c3)c3cc(C(C)(C)C)ccc3c(N(c3ccc4ccccc4c3)c3ccc4ccccc4c3)c2c1 [EM148],0.5%
14,Cc1cccc(N(c2cccc(C)c2)c2c3ccc(C(C)C)cc3c(N(c3cccc(C)c3)c3cccc(C)c3)c3ccc(C(C)C)cc23)c1 [EM149],0.5%
15,c1ccc(N(c2ccc3ccccc3c2)c2c3ccccc3c(N(c3ccccc3)c3ccc4ccccc4c3)c3cc(C4CCCCC4)ccc23)cc1 [EM174],0.5%
16,Cc1cccc(N(c2cccc(C)c2)c2c3ccccc3c(N(c3cccc(C)c3)c3cccc(C)c3)c3cc(C4CC5CCC4C5)ccc23)c1 (centres unmarked) [EM175],0.5%
17,Cc1ccc(N(c2ccc(C(C)C)cc2)c2c3ccccc3c(N(c3ccc(C)cc3)c3ccc(C(C)C)cc3)c3cc(C45CC6CC(CC(C6)C4)C5)ccc23)cc1 [EM176],0.5%
18,CC(C)c1ccc(N(c2ccccc2)c2c3ccccc3c(N(c3ccccc3)c3ccc(C(C)C)cc3)c3cc(C45CC6CC(CC(C6)C4)C5)ccc23)cc1 [EM177],0.5%

# Same assay, conditions: Table 3
row,Compound,Solubility (%)
1,CCC(C)c1ccc(N(c2ccc(-c3ccccc3)cc2)c2ccc(N(c3ccc(-c4ccccc4)cc3)c3ccc(C(C)CC)cc3)c3ccccc23)cc1 (centres unmarked) [EM191],1%
2,c1ccc(-c2cc(N(c3ccc(C4CCCCC4)cc3)c3cc4ccccc4c4ccccc34)c3cc(-c4ccccc4)cc(N(c4ccc(C5CCCCC5)cc4)c4cc5ccccc5c5ccccc45)c3c2)cc1 [EM192],1%
3,Cc1ccc(N(c2ccc(C(C)C)cc2)c2ccc3ccc4c(N(c5ccc(C)cc5)c5ccc(C(C)C)cc5)ccc5ccc2c3c54)cc1 [EM193],0.5%
4,CC(C)c1ccc(N(c2ccc3ccccc3c2)c2ccc3ccc4c(N(c5ccc(C(C)C)cc5)c5ccc6ccccc6c5)ccc5ccc2c3c54)cc1 [EM194],1%
5,Cc1cc(C)cc(N(c2ccc(C(C)C)cc2)c2ccc3ccc4c(N(c5ccc(C(C)C)cc5)c5cc(C)cc(C)c5)ccc5ccc2c3c54)c1 [EM195],0.5%
6,CC(C)c1ccc(N(c2ccc(C(C)C)cc2)c2ccc3ccc4c(N(c5ccc(C(C)C)cc5)c5ccc(C(C)C)cc5)ccc5ccc2c3c54)cc1 [EM196],1%
7,CC(C)c1ccc(N(c2ccc(C(C)(C)C)cc2)c2ccc3ccc4c(N(c5ccc(C(C)C)cc5)c5ccc(C(C)(C)C)cc5)ccc5ccc2c3c54)cc1 [EM197],1%
8,CC(C)c1ccc(N(c2ccc(C(C)C)cc2)c2c3ccccc3c(N(c3ccc(C(C)C)cc3)c3ccc(C(C)C)cc3)c3ccccc23)cc1 [EM204],0.5%
9,CC(C)c1ccc(N(c2ccc(C(C)(C)C)cc2)c2c3ccccc3c(N(c3ccc(C(C)C)cc3)c3ccc(C(C)(C)C)cc3)c3ccccc23)cc1 [EM205],0.5%
10,CCc1ccc(N(c2ccc(C(C)CC)cc2)c2c3ccccc3c(-c3c4ccccc4c(N(c4ccc(CC)cc4)c4ccc(C(C)CC)cc4)c4ccccc34)c3ccccc23)cc1 (centres unmarked) [EM206],0.5%
11,CC(C)c1ccc(N(c2cccc(-c3ccccc3)c2)c2c3ccccc3c(-c3c4ccccc4c(N(c4ccc(C(C)C)cc4)c4cccc(-c5ccccc5)c4)c4ccccc34)c3ccccc23)cc1 [EM207],0.5%
12,Cc1cc(C)cc(N(c2ccc(C(C)C)cc2)c2c3ccccc3c(-c3c4ccccc4c(N(c4ccc(C(C)C)cc4)c4cc(C)cc(C)c4)c4ccccc34)c3ccccc23)c1 [EM208],1%
13,Cc1ccc(N(c2ccc(C(C)C)cc2)c2c3ccccc3c(-c3c4ccccc4c(N(c4ccc(C)cc4)c4ccc(C(C)C)cc4)c4cc(C(C)(C)C)ccc34)c3ccc(C(C)(C)C)cc23)cc1 [EM209],0.5%
14,Cc1ccc(N(c2ccc(C(C)C)cc2)c2c3ccccc3c(N(c3ccc(C)cc3)c3ccc(C(C)C)cc3)c3c2ccc2ccccc23)cc1 [EM210],1%
15,Cc1ccc(N(c2ccc(C(C)C)cc2)c2c3ccccc3c(N(c3ccc(C(C)C)cc3)c3ccc(C(C)C)cc3)c3c2ccc2ccccc23)cc1 [EM211],1%
16,CC(C)c1ccc(N(c2ccc(C(C)C)cc2)c2cc3c4ccccc4c(N(c4ccc(C(C)C)cc4)c4ccc(C(C)C)cc4)cc3c3ccccc23)cc1 [EM212],1%
17,Cc1ccc(N(c2ccc(C(C)C)cc2)c2cc3c4ccccc4c(N(c4ccc(C)cc4)c4ccc(C(C)C)cc4)cc3c3ccccc23)cc1 [EM213],0.5%
18,CC(C)c1ccc(N(c2cccc(C(C)(C)C)c2)c2cc3c4ccccc4c(N(c4ccc(C(C)C)cc4)c4cccc(C(C)(C)C)c4)cc3c3ccccc23)cc1 [EM214],1%
19,Cc1cc(C)cc(N(c2ccc(C(C)C)cc2)c2cc3c4ccccc4c(N(c4ccc(C(C)C)cc4)c4cc(C)cc(C)c4)cc3c3ccccc23)c1 [EM215],1%

# Same assay, conditions: Table 4
row,Compound,Solubility (%)
1,CCC(C)c1ccc(N(c2ccc(/C=C/c3ccc(/C=C/c4ccc(N(c5ccc(C(C)CC)cc5)c5ccc(C(C)CC)cc5)cc4)cc3)cc2)c2ccc(C(C)CC)cc2)cc1 (centres unmarked) [Compound D1],0.5%
2,"c1ccc(N(c2ccccc2)c2c3ccccc3c(N(c3ccccc3)c3ccccc3)c3ccccc23)cc1 [Compound D3, reference compound]",<0.1%
3,"Cc1ccc(N(c2ccc(C)cc2)c2ccc(/C=C/c3ccc(/C=C/c4ccc(N(c5ccc(C)cc5)c5ccc(C)cc5)cc4)cc3)cc2)cc1 [Compound D4, reference compound]",<0.1%
4,Cc1cccc(N(c2cccc(C)c2)c2c3ccccc3c(N(c3cccc(C)c3)c3cccc(C)c3)c3cc(C4CC5CCC4C5)ccc23)c1 (centres unmarked) [EM175],0.5%
5,Cc1ccc(N(c2ccc(C(C)C)cc2)c2c3ccccc3c(N(c3ccc(C)cc3)c3ccc(C(C)C)cc3)c3cc(C45CC6CC(CC(C6)C4)C5)ccc23)cc1 [EM176],0.5%
6,CC(C)c1ccc(N(c2ccccc2)c2c3ccccc3c(N(c3ccccc3)c3ccc(C(C)C)cc3)c3cc(C45CC6CC(CC(C6)C4)C5)ccc23)cc1 [EM177],0.5%

# Experiment: Solubility Evaluation 1: solubility of host compounds in toluene
# Format: physicochemical
# Conditions: host compounds
# Procedure: Solubility Evaluation 1 was conducted by the following method.
# as §1
row,Compound,solubility in the toluene (in words)
1,c1ccc(-c2ccc(-c3ccccc3-c3c4ccccc4c(-c4c5ccccc5c(-c5ccccc5-c5ccc(-c6ccccc6)cc5)c5ccccc45)c4ccccc34)cc2)cc1 [Compound H9],solubility capable of performing the thickness control of the films

# Same assay, conditions: in toluene; 100 mg compound, toluene added until dissolved
row,Compound,Solubility (%)
1,c1ccc2cc(-c3ccc(-c4c5ccccc5c(-c5ccc(-c6cccc7ccccc67)cc5)c5ccccc45)cc3)ccc2c1 [Compound H1],2.0%
2,c1cc(-c2ccc(-c3cccc4ccccc34)cc2)cc(-c2c3ccccc3c(-c3ccc(-c4cccc5ccccc45)cc3)c3ccccc23)c1 [Compound H2],2.0%
3,c1ccc2cc(-c3ccc4cc(-c5c6ccccc6c(-c6ccc(-c7cccc8ccccc78)cc6)c6ccccc56)ccc4c3)ccc2c1 [Compound H3],2.0%
4,c1ccc2cc(-c3c4ccccc4c(-c4ccc(-c5cccc6ccccc56)cc4)c4ccccc34)ccc2c1 [Compound H4],5.0%
5,c1ccc(-c2cc(-c3ccc4ccccc4c3)cc(-c3c4ccccc4c(-c4ccc5ccccc5c4)c4ccccc34)c2)cc1 [Compound H5],5.0%
6,c1cc(-c2ccc3ccccc3c2)cc(-c2c3ccccc3c(-c3cccc4ccccc34)c3ccccc23)c1 [Compound H6],0.25%
7,c1cc(-c2ccc3ccccc3c2)cc(-c2c3ccccc3c(-c3ccc4cc(-c5ccc6ccccc6c5)ccc4c3)c3ccccc23)c1 [Compound H7],0.25%
8,c1ccc(-c2ccc(-c3c4ccccc4c(-c4ccccc4)c4ccccc34)cc2)cc1 [Compound H8],0.2%
9,c1ccc(-c2ccc(-c3ccccc3-c3c4ccccc4c(-c4c5ccccc5c(-c5ccccc5-c5ccc(-c6ccccc6)cc5)c5ccccc45)c4ccccc34)cc2)cc1 [Compound H9],1.4%
